Experimental data: PubChem BioAssay AID330 (DTP/NCI, 2004)
Values joined by “and” are separate entries in the source; they are usually repeats but may differ in a detail not shown here. Identical values can stand only once. Inconclusive results and toxic doses are left out. How the source made its calls: active means survival T/C of 150% or more; inactive means T/C below 125% in these data.

Test system: P388 leukemia ip, CD2F1 mice, survival T/C
Assay: NCI In Vivo Anticancer Drug Screen. Data for tumor model P388 Leukemia (intraperitoneal) in CD2F1 (CDF1) mice
Conditions: endpoint: median survival time, higher = longer survival
Summary of the method: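 Mice carrying the transplanted tumor received test compound or vehicle. Survival was recorded in each group, and the value is the treated-group measurement divided by that of the vehicle-treated control group.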

[1] = dose: 50.0 mg/kg/injection, schedule: Q01DX009 (ip), vehicle: saline with Tween-80
[2] = dose: 100.0 mg/kg/injection, schedule: Q01DX009 (ip), vehicle: saline with Tween-80
[3] = dose: 200.0 mg/kg/injection, schedule: Q01DX009 (ip), vehicle: saline with Tween-80
[4] = dose: 50.0 mg/kg/injection, schedule: Q01DX005 (ip), vehicle: Klucel (hydroxypropylcellulose) (HPC)
[5] = dose: 100.0 mg/kg/injection, schedule: Q01DX005 (ip), vehicle: Klucel (hydroxypropylcellulose) (HPC)
[6] = dose: 200.0 mg/kg/injection, schedule: Q01DX005 (ip), vehicle: Klucel (hydroxypropylcellulose) (HPC)
[7] = dose: 100.0 mg/kg/injection, schedule: Q04DX003 (ip), vehicle: saline
[8] = dose: 200.0 mg/kg/injection, schedule: Q04DX003 (ip), vehicle: saline
[9] = dose: 400.0 mg/kg/injection, schedule: Q04DX003 (ip), vehicle: saline
[10] = dose: 60.0 mg/kg/injection, schedule: Q01DX005 (ip), vehicle: Klucel (hydroxypropylcellulose) (HPC)
[11] = dose: 120.0 mg/kg/injection, schedule: Q01DX005 (ip), vehicle: Klucel (hydroxypropylcellulose) (HPC)
[12] = dose: 25.0 mg/kg/injection, schedule: Q01DX009 (ip), vehicle: saline with Tween-80

Measured: T/C

CCCCCCC(=O)/C=C/c1cccc(OCc2ccc(Cl)c(Cl)c2)c1
inactive: [1] 115 % of control | [2] 90 % of control | [3] 97 % of control

CC(C)(C)N=C(CCN1CCCCC1)Nc1ccccc1Cl
inactive: [1] 116 % of control | [2] 106 % of control | [3] 102 % of control

C=CCP1(C)=NP(OCC(F)(F)F)(OCC(F)(F)F)=NP(OCC(F)(F)F)(OCC(F)(F)F)=N1 (stereo not given)
inactive: [4] 99 % of control | [5] 101 % of control | [6] 92 % of control

O=C(Nc1ccc(Cl)cc1)Nc1nnc2nc(C(C(=O)c3cccs3)c3nc4nnc(NC(=O)Nc5ccc(Cl)cc5)n4[nH]c3=O)c(=O)[nH]n12
inactive: dose: 60.0 mg/kg/injection, schedule: Q01DX005 (ip), vehicle: saline with Tween-80 91 % of control | dose: 120.0 mg/kg/injection, schedule: Q01DX005 (ip), vehicle: saline with Tween-80 94 % of control

COCCOCCOCCOCCOCCN
inactive: [7] 100 % of control | [8] 100 % of control | [9] 104 % of control

N#CC(c1ccccc1)C1NC(C(=O)O)CS1 (stereo not given)
inactive: dose: 50.0 mg/kg/injection, schedule: Q01DX009 (ip), vehicle: suspension in saline 106 % of control | dose: 100.0 mg/kg/injection, schedule: Q01DX009 (ip), vehicle: suspension in saline 93 % of control | dose: 200.0 mg/kg/injection, schedule: Q01DX009 (ip), vehicle: suspension in saline 93 % of control

CSc1nsc(SC)c1C(N)=O
inactive: [10] 99 % of control | [11] 98 % of control | dose: 240.0 mg/kg/injection, schedule: Q01DX005 (ip), vehicle: Klucel (hydroxypropylcellulose) (HPC) 105 % of control

O=C1CC(=O)C(Br)=C1Br
inactive: dose: 0.37 mg/kg/injection, schedule: Q01DX009 (ip), vehicle: saline 109 % of control | dose: 0.75 mg/kg/injection, schedule: Q01DX009 (ip), vehicle: saline 100 % of control | dose: 0.75 mg/kg/injection, schedule: Q04DX003 (ip), vehicle: saline with Tween-80 95 % of control | dose: 1.5 mg/kg/injection, schedule: Q01DX009 (ip), vehicle: saline 100 % of control

O=c1[nH]c2cc(Cl)ccc2c(CCl)c1Cl
inactive: [12] 110 % of control | [1] 110 % of control

Cc1ccc2nc3sc(=O)sc3nc2c1
inactive: [10] 101 % of control | [11] 107 % of control

CCOC(=O)C(NC(C)=O)(C(=O)OCC)c1ccc(Cl)cn1
inactive: [7] 103 % of control | [8] 100 % of control | [9] 95 % of control

C[CH2][Sn]([Br])([c]1ccccc1)[c]1ccccc1CN(C)C (stereo not given)
inactive: dose: 50.0 mg/kg/injection, schedule: Q01DX009 (ip), vehicle: saline 91 % of control | dose: 100.0 mg/kg/injection, schedule: Q01DX009 (ip), vehicle: saline 98 % of control

COc1cc(/C=N/NC(=O)c2cccs2)cc(OC)c1OC
inactive: [2] 95 % of control | [3] 100 % of control | dose: 400.0 mg/kg/injection, schedule: Q01DX009 (ip), vehicle: saline with Tween-80 100 % of control

O=C1CC2C1C1C=CC2n2c(=O)n(-c3ccccc3)c(=O)n21 (stereo not given)
inactive: dose: 12.5 mg/kg/injection, schedule: Q04DX002 (ip), vehicle: saline with Tween-80 98 % of control | dose: 25.0 mg/kg/injection, schedule: Q04DX002 (ip), vehicle: saline with Tween-80 99 % of control | dose: 50.0 mg/kg/injection, schedule: Q04DX002 (ip), vehicle: saline with Tween-80 101 % of control

N#CC(Cc1ccc(Cl)cc1)c1ccccc1 (stereo not given)
inactive: dose: 50.0 mg/kg/injection, schedule: Q01DX009 (ip), vehicle: Klucel (hydroxypropylcellulose) (HPC) 89 % of control | dose: 100.0 mg/kg/injection, schedule: Q01DX009 (ip), vehicle: Klucel (hydroxypropylcellulose) (HPC) 95 % of control | dose: 200.0 mg/kg/injection, schedule: Q01DX009 (ip), vehicle: Klucel (hydroxypropylcellulose) (HPC) 96 % of control

Clc1ccc(SSN2CCOCC2)cc1
inactive: dose: 3.12 mg/kg/injection, schedule: Q01DX009 (ip), vehicle: saline 100 % of control | dose: 6.25 mg/kg/injection, schedule: Q01DX009 (ip), vehicle: saline 109 % of control | dose: 12.5 mg/kg/injection, schedule: Q01DX009 (ip), vehicle: saline 102 % of control

[Cl][Pd][Cl].[NH-]C(C(=O)O)c1ccccc1.[NH-]C(C(=O)O)c1ccccc1 (stereo not given)
inactive: [7] 103 % of control | [8] 97 % of control | [9] 109 % of control

CCc1cccc2c(NCCCCCCCCCCNc3c4ccccc4nc4c(CC)cccc34)c3ccccc3nc12
inactive: dose: 0.62 mg/kg/injection, schedule: Q## X009 (ip), vehicle: lactic acid 104 % of control | dose: 1.25 mg/kg/injection, schedule: Q## X009 (ip), vehicle: lactic acid 107 % of control | dose: 2.5 mg/kg/injection, schedule: Q## X009 (ip), vehicle: lactic acid 113 % of control

Cc1cccnc1NC(=S)Nc1ccccc1Cl
inactive: dose: 12.5 mg/kg/injection, schedule: Q01DX009 (ip), vehicle: gum acacia 104 % of control | dose: 25.0 mg/kg/injection, schedule: Q01DX009 (ip), vehicle: gum acacia 96 % of control | dose: 50.0 mg/kg/injection, schedule: Q01DX009 (ip), vehicle: gum acacia 104 % of control | dose: 100.0 mg/kg/injection, schedule: Q01DX009 (ip), vehicle: gum acacia 95 % of control

Cc1nc2ccccc2n(CC2CCCN3CCCC[C@H]23)c1=O (stereo not given in full)
inactive: dose: 50.0 mg/kg/injection, schedule: Q01DX005 (ip), vehicle: saline with Tween-80 97 % of control | dose: 100.0 mg/kg/injection, schedule: Q01DX005 (ip), vehicle: saline with Tween-80 101 % of control

CCCC(=O)OC1C=C2N3C(=O)C4CC56C(=CC(OC(C)=O)C7OC75)N4C(=O)C3CC26C2OC12 (stereo not given)
inactive: dose: 0.13 mg/kg/injection, schedule: Q01DX005 (ip), vehicle: Klucel (hydroxypropylcellulose) (HPC) 100 % of control | dose: 0.25 mg/kg/injection, schedule: Q01DX005 (ip), vehicle: Klucel (hydroxypropylcellulose) (HPC) 100 % of control | dose: 0.5 mg/kg/injection, schedule: Q01DX005 (ip), vehicle: Klucel (hydroxypropylcellulose) (HPC) 100 % of control | dose: 1.0 mg/kg/injection, schedule: Q01DX005 (ip), vehicle: Klucel (hydroxypropylcellulose) (HPC) 107 % of control | dose: 2.0 mg/kg/injection, schedule: Q01DX005 (ip), vehicle: Klucel (hydroxypropylcellulose) (HPC) 99 % of control and 103 % of control | dose: 4.0 mg/kg/injection, schedule: Q01DX005 (ip), vehicle: Klucel (hydroxypropylcellulose) (HPC) 96 % of control

CCCCOP(O)(=S)OCCCC.[Gd]
inactive: [12] 92 % of control | [1] 87 % of control and 98 % of control | [3] 86 % of control

CCOc1ccccc1N=Cc1c2ccccc2cc2ccccc12
inactive: dose: 12.5 mg/kg/injection, schedule: Q01DX009 (ip), vehicle: saline with Tween-80 100 % of control | [12] 95 % of control | [1] 98 % of control and 86 % of control | [2] 89 % of control

CN(C)c1ccc([N+]([O-])=NC#N)cc1
inactive: dose: 25.0 mg/kg/injection, schedule: Q04DX003 (ip), vehicle: saline with Tween-80 93 % of control | dose: 50.0 mg/kg/injection, schedule: Q04DX003 (ip), vehicle: saline with Tween-80 95 % of control | dose: 100.0 mg/kg/injection, schedule: Q04DX003 (ip), vehicle: saline with Tween-80 92 % of control

CCCN(CCC)C(=O)C(c1ccccc1)C(O)(c1ccccc1)c1ccccc1 (stereo not given)
inactive: [4] 100 % of control | [5] 95 % of control | [6] 92 % of control

O=C(/C=C\c1ccc(O)c(O)c1)O[C@@H]1C[C@](O)(C(=O)O)C[C@@H](O)[C@H]1O
inactive: dose: 50.0 mg/kg/injection, schedule: Q04DX003 (ip), vehicle: saline 100 % of control | [7] 100 % of control | [8] 105 % of control

CCCCCCC1(/C=C/c2ccc(Cl)cc2Cl)OCC(C)(C)CO1
inactive: dose: 50.0 mg/kg/injection, schedule: Q01DX009 (ip), vehicle: saline + alcohol 102 % of control | dose: 100.0 mg/kg/injection, schedule: Q01DX009 (ip), vehicle: saline + alcohol 102 % of control | dose: 200.0 mg/kg/injection, schedule: Q01DX009 (ip), vehicle: saline + alcohol 102 % of control

CN(C)c1ncnc2c1ncn2CC(O)CN (stereo not given)
inactive: dose: 50.0 mg/kg/injection, schedule: Q01DX005 (ip), vehicle: distilled water + alcohol 100 % of control | dose: 100.0 mg/kg/injection, schedule: Q01DX005 (ip), vehicle: distilled water + alcohol 103 % of control | dose: 200.0 mg/kg/injection, schedule: Q01DX005 (ip), vehicle: distilled water + alcohol 96 % of control
